# Source: patent publication US11401278B2, “Macrocyclic indole derivatives” (The Broad Institute, Inc., priority 2017, dated 2022)
# Several values for one entry are separate records, joined by “and”; a condition that tells them apart may be missing. Equal values may be shown once. Where a name gives a salt, the structure may show the parent alone. Read-outs that look alike come from different tables or passages of the source.
# What was measured:
# [1] = tested on: SUDHL10; assay: Induction of cytotoxicity (Assay 6), SUDHL10; conditions: read-out: Cytotox SUDHL10 [M] (median) IC50, CellTiter-Glo, 5 hours, SUDHL10
# [2] = tested on: SUDHL5; assay: Induction of caspase-3/7 activity (Assay 4), SUDHL5; format: cell-based; conditions: caspase-3/7 induction, median
# In short: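 Caspase-3/7 activity measured by Caspase-Glo 3/7 luminescence in DLBCL cells after 3 h compound treatment at 37 °C. Medium-only background subtracted. EC50 fitted with C0 fixed at 1 and top set to the reference compound's plateau/max induction.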
# [3] = tested on: SUDHL5; assay: Antiproliferation assay (Assay 7), SUDHL5; format: cell-based; conditions: CellTiter-Glo, median, read-out: Antiproli SUDHL5 [M] (median) IC50
# In short: (§1)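 Cells were exposed to compound for 72 hours at 37° C. Viability was measured by CellTiter-Glo luminescence. A day 0 plate read at the start served as the time-zero reference.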
# [4] = tested on: AMO-1; assay: Antiproliferation assay (Assay 7), AMO-1; format: cell-based; conditions: CellTiter-Glo, 72 hours, several values per example
# In short: as §1
# [5] = read-out: Antiproli AMO-1 [M] IC50
SMILES,EC50 ([2]; 3 hours),IC50 ([3]; 72 hours),"EC50 ([2]; Homo sapiens, SU-DHL-5, 3 h)","IC50 ([3]; Homo sapiens, SU-DHL-5, 72 h)",IC50 [1],"IC50 ([1]; Homo sapiens, SU-DHL10, 5 h)","IC50 [4, 5]","IC50 ([4]; listed as 05, read-out: Antiproli AMO-1 [M] IC50)"
"CCc1c2c(nn1C)C(CCN1CCOCC1)N(C)S(=O)(=O)CCCn1c(C(=O)O)c(CCCOc3cccc4cc(F)ccc34)c3ccc(Cl)c-2c31 (racemic) [Example 73, (rac)-(4-chloro-3-ethyl-7-{3-[(6-fluoronaphthalen-1-yl)oxy]propyl}-2,14-dimethyl-15-[2-(morpholin-4-yl)ethyl]-13,13-dioxo-10,11,12,13,14,15-hexahydro-2H-13lambda^6-pyrazolo[3′,4′:4,5][1,2,8]thiadiazacycloundecino[6,7,8-hi]indole-8-carboxylic acid (Racemate 1)]",23 nM,1.5e-08 M,–,–,–,–,2.6e-08 M and 2.5e-08 M,–
"CCc1c2c(nn1C)CN(C1CC1)S(=O)(=O)CCCn1c(C(=O)O)c(CCCOc3cccc4cc(F)ccc34)c3ccc(Cl)c-2c31 (single isomer, unassigned; enantiomer 1) [Example 54, (−)-4-chloro-14-cyclopropyl-3-ethyl-7-{3-[(6-fluoronaphthalen-1-yl)oxy]propyl}-2-methyl-13,13-dioxo-10,11,12,13,14,15-hexahydro-2H-13lambda^6-pyrazolo[3′,4′:4,5][1,2,8]thiadiazacycloundecino[6,7,8-hi]indole-8-carboxylic acid N-ethylethanamine Salt (Enantiomer 1)]",260 nM,4.1e-07 M,–,–,6.5e-07 M,–,–,–
"Cc1c2c(nn1C)CN(C)S(=O)(=O)CCCn1c(C(=O)O)c(CCCOc3cccc4ccccc34)c3ccc(Cl)c-2c31 (single isomer, unassigned; enantiomer 2) [Example 6, 4-Chloro-2,3,14-trimethyl-7-{3-[(naphthalen-1-yl)oxy]propyl}-13,13-dioxo-10,11,12,13,14,15-hexahydro-2H-13λ^6-pyrazolo[3′,4′:4,5][1,2,8]thiadiazacycloundecino[6,7,8-hi]indole-8-carboxylic acid-N-ethylethanamine salt (Enantiomer 2)]",16000 nM,1.1e-05 M,–,–,1.7e-05 M,–,–,–
"CCNCC.CCc1c2c(nn1C)C(CCN1CCOCC1)N(C)S(=O)(=O)CCCn1c(C(=O)O)c(CCCOc3cccc4cc(F)ccc34)c3ccc(Cl)c-2c31 (single isomer, unassigned; enantiomer 2) [Example 76, 4-chloro-3-ethyl-7-{3-[(6-fluoronaphthalen-1-yl)oxy]propyl}-2,14-dimethyl-15-[2-(morpholin-4-yl)ethyl]-13,13-dioxo-10,11,12,13,14,15-hexahydro-2H-13lambda^6-pyrazolo[3′,4′:4,5][1,2,8]thiadiazacycloundecino[6,7,8-hi]indole-8-carboxylic acid-N-ethylethanamine Salt (Enantiomer 2)]",6.5 nM,5.7e-09 M,–,–,8.2e-09 M,–,–,–

# Continued, in another order:
EC50 ([2]; 3 hours),IC50 ([3]; 72 hours),"EC50 ([2]; Homo sapiens, SU-DHL-5, 3 h)","IC50 ([3]; Homo sapiens, SU-DHL-5, 72 h)",SMILES,IC50 [1],"IC50 ([1]; Homo sapiens, SU-DHL10, 5 h)","IC50 [4, 5]","IC50 ([4]; listed as 05, read-out: Antiproli AMO-1 [M] IC50)"
550 nM,5.9e-07 M,–,–,"CCc1c2c(nn1C)CN(C1CC1)S(=O)(=O)CCCn1c(C(=O)O)c(CCCOc3cccc4cc(F)ccc34)c3ccc(Cl)c-2c31 (racemic) [Example 53, (rac)-4-chloro-14-cyclopropyl-3-ethyl-7-{3-[(6-fluoro-1-naphthyl)oxy]propyl}-2-methyl-11,12,14,15-tetrahydro-2H,10H-pyrazolo[3′,4′:4,5][1,2,8]thiadiazacycloundecino[6,7,8-hi]indole-8-carboxylic acid 13,13-dioxide]",9e-07 M,–,–,–
–,–,200 nM,9.6e-08 M,"CCc1c2c(nn1C)CN(CC)S(=O)(=O)CCCn1c(C(=O)O)c(CCCOc3cccc4cc(F)ccc34)c3ccc(Cl)c-2c31 (racemic) [Example 56, (rac)-4-chloro-3,14-diethyl-7-{3-[(6-fluoro-1-naphthyl)oxy]propyl}-2-methyl-11,12,14,15-tetrahydro-2H,10H-pyrazolo[3′,4′:4,5][1,2,8]thiadiazacycloundecino[6,7,8-hi]indole-8-carboxylic acid 13,13-dioxide]",–,2.5e-07 M,–,–
18 nM,1.8e-08 M,–,–,"CCc1c2c(nn1C)C(CCC1CCOCC1)N(C)S(=O)(=O)CCCn1c(C(=O)O)c(CCCOc3cccc4cc(F)ccc34)c3ccc(Cl)c-2c31 (racemic) [Example 60, (rac)-4-chloro-3-ethyl-7-{3-[(6-fluoro-1-naphthyl)oxy]propyl}-2,14-dimethyl-15-[2-(tetrahydro-2H-pyran-4-yl)ethyl]-11,12,14,15-tetrahydro-2H,10H-pyrazolo[3′,4′:4,5][1,2,8]thiadiazacycloundecino[6,7,8-hi]indole-8-carboxylic acid 13,13-dioxide (Racemate 1)]",3.9e-08 M,–,4.4e-08 M,–
130 nM,5.1e-07 M,–,–,"Cc1c2c(nn1C)CN(C)S(=O)(=O)CCCn1c(C(=O)O)c(CCCOc3cccc4ccccc34)c3ccc(Cl)c-2c31 (single isomer, unassigned; enantiomer 1) [Example 5, 4-Chloro-2,3,14-trimethyl-7-{3-[(naphthalen-1-yl)oxy]propyl}-13,13-dioxo-10,11,12,13,14,15-hexahydro-2H-13λ^6-pyrazolo[3′,4′:4,5][1,2,8]thiadiazacycloundecino[6,7,8-hi]indole-8-carboxylic acid-N-ethylethanamine salt (Enantiomer 1)]",7.1e-07 M,–,–,1.5e-06 M
390 nM,3e-07 M,–,–,"Cc1c2c(nn1C)C(CCN1CCOCC1)N(C)S(=O)(=O)CCCn1c(C(=O)O)c(CCCOc3cccc4ccccc34)c3cccc-2c31 (single isomer, unassigned; enantiomer 2) [Example 46, 2,3,14-trimethyl-15-[2-(morpholin-4-yl)ethyl]-7-{3-[(naphthalen-1-yl)oxy]propyl}-13,13-dioxo-10,11,12,13,14,15-hexahydro-2H-13lambda^6-pyrazolo[3′,4′:4,5][1,2,8]thiadiazacycloundecino[6,7,8-hi]indole-8-carboxylic acid N-ethylethanamine Salt (Enantiomer 2)]",6.1e-07 M,–,5.3e-07 M and 5e-07 M,–
7.3 nM,6.7e-09 M,–,–,"Cc1c2c(nn1C)C(CCN1CCOCC1)N(C)S(=O)(=O)CCCn1c(C(=O)O)c(CCCOc3cccc4cc(F)ccc34)c3ccc(Cl)c-2c31 (single isomer, unassigned; enantiomer 2) [Example 67, 4-chloro-7-{3-[(6-fluoronaphthalen-1-yl)oxy]propyl}-2,3,14-trimethyl-15-[2-(morpholin-4-yl)ethyl]-13,13-dioxo-10,11,12,13,14,15-hexahydro-2H-13lambda^6-pyrazolo[3′,4′:4,5][1,2,8]thiadiazacycloundecino[6,7,8-hi]indole-8-carboxylic acid (Enantiomer 2)]",1.8e-08 M,–,–,–
